This note sets out measurements from US8932818B2, “Screening assays for compounds that modulate programmed ribosomal frameshifting” (PTC Therapeutics, Inc., priority 2008, dated 2015).

The structures appear in SMILES notation.

The test deals with HIV-1 frameshift signal sequence. The experiment in a line: dual luciferase assay for viral programmed ribosomal frameshifting. Type of test: cell-based. An excerpt: For example, the ability of a compound to modulate the efficiency of viral programmed ribosomal frameshifting can be validated in a dual luciferase assay comprising: (a) contacting a compound with a host cell expressing a nucleic acid construct comprising in 5′ to 3′ order: (i) a promoter sequence; (ii) the Renilla luciferase (rluc) gene; (iii) the HIV-1 frameshift signal sequence; (iv) the firefly luciferase gene (flue); and (v) a polyadenylation sequence; and (b) detecting the activity of Renilla luciferase versus that of firefly luciferase, wherein a compound that modulates the efficiency of programmed ribosomal frameshifting is validated if (i) the activity of Renilla luciferase in the presence of the compound is not changed relative to the activity of Renilla luciferase detected in the absence of the compound; and (ii) the activity of firefly luciferase detected in the presence of the compound is changed relative to the activity of firefly luciferase detected in the absence of the compound. In other words, the ratio of Renilla luciferase to firefly luciferase is changed in the presence of the compound relative to the absence of the compound.
The ability of Compound 1 to modulate the efficiency of viral programmed ribosomal frameshifting was measured using a dual luciferase assay (as described in Biswas, et al., 2004, J. Virol. 78(4):2082-2087).

`COc1ccc2c(c1)C(=O)N(c1ccc(C(C)C)cc1)C2` [Compound 1, 2-(4-isopropylphenyl)-6-methoxyisoindolin-1-one]: under “dual luciferase assay”, the “modulates the efficiency of viral programmed ribosomal frameshifting” value was “modulates the efficiency of viral programmed ribosomal frameshifting”. Also, the “inhibition in luciferase activity relative to negative control” value (relative to 0.5% DMSO, average at compound test concentration approximately 5 μM to approximately 130 μM (FIG. 1)) is on record as “approximately 5 fold”.
